One series relates to CYP3A4. To be noted: cited from earlier work.
The next series has as its target T1, human recombinant CYP3A4 (Homo sapiens, UniProt P08684).
T1 construct: purchased Life Technologies P2858; host or cells: baculosomes (baculovirus-infected insect cell microsomes)
Description: CYP3A4 inhibition, Vivid CYP450 blue screening kit with baculosomes. The series is classed as biochemical. The protocol:
CYP3A4 inhibition assay was carried out by using Vivid® CYP450 Screening Kit from Life Technologies as recommended by the manufacturer (# P2858, Carlsbad, CA). This assay allows rapid measurement of interactions between drugs of interest and CYP enzymes based on their capability to inhibit the production of a fluorescent signal in reactions using CYP BACULOSOMES® Plus Reagents and specific Vivid® Substrates. Briefly, the assay was conducted in a 96-well assay plate. […] The final concentrations of 2.5, 5, 7.5, 10, 25, 50, 75, and 100 μM were achieved by diluting the stocks in 1X Vivid® CYP reaction buffer. […] For ethanol only experiment, 2.5, 5, […], 20, 30, and 50 mM final concentrations were used. The final concentration of acetonitrile in each reaction was 0.01% in 100 μl final reaction volume. The fluorescence was immediately measured using a microplate reader (Cytation™ 5 Cell Imaging Multi-Mode Reader, BioTek, VT) at the 415/460 nm excitation and emission wavelengths.
The concentrations of all the drugs were quantified using Ab Sciex Analyst® software. Microsomal kinetic data were analyzed using Michaelis-Menten and exponential decay equations. CYP3A4 inhibition data were evaluated by fitting the values to dose-response inhibition and calculated IC50 values were reported. All graphs were plotted and two-tailed t-tests were performed wherever appropriate using GraphPad Prism 5.01 (GraphPad, San Diego, CA). Significant differences between more than two groups analyzed with one-way ANOVA followed by Dunnett’s multiple comparison tests using IBM SPSS […] version 20. A p value <0.05 was considered significant compared to respective controls. The original data and/or statistical analyses for Michaelis-Menten Kinetics, drug metabolism and half-life determination, inhibition studies, and ligand docking are provided in the supporting information (S1 file).

These results are taken from paper PMC4752462 (PLoS ONE, 2016).

For orientation: IC50 means the concentration at which inhibition is half-maximal.

T1 sequence (P08684 whole entry): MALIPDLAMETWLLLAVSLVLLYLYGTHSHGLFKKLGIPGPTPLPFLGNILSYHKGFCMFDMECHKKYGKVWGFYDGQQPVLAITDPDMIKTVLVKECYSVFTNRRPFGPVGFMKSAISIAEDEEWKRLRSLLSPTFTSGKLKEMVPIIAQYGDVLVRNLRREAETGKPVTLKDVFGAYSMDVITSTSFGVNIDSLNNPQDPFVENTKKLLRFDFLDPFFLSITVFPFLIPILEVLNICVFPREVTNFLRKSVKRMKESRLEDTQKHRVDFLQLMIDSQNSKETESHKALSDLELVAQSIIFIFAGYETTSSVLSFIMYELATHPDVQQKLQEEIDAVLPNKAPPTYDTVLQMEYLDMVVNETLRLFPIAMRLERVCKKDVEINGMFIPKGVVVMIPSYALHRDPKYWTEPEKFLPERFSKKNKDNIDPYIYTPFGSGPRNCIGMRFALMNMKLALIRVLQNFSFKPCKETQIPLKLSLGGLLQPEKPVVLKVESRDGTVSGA

Regarding `Cc1c(O)cccc1C(=O)N[C@@H](CSc1ccccc1)[C@H](O)CN1C[C@H]2CCCC[C@H]2C[C@H]1C(=O)NC(C)(C)C` [nelfinavir], the “effect of ethanol exposure on the IC50 value” in the series with CYP3A4 was “significantly decreased”.
As for `CC(C)CN(C[C@@H](O)[C@H](Cc1ccccc1)NC(=O)O[C@H]1CCOC1)S(=O)(=O)c1ccc(N)cc1` [amprenavir], the “effect of ethanol exposure on the IC50 value” in the series with CYP3A4 is given as “significantly decreased”.
For the compound `CCO` [EtOH, ethanol], the “CYP3A4 activity (Fig 5 inset)” value at human recombinant CYP3A4 (EtOH 2.5 mM alone) was found to be 102.61; at human recombinant CYP3A4 (EtOH 5 mM alone) it was 98.7735; on human recombinant CYP3A4 (EtOH 10 mM alone) it was 93.5305; on human recombinant CYP3A4 (EtOH 20 mM alone), 91.7899; at human recombinant CYP3A4 (EtOH 30 mM alone), 86.4404; at human recombinant CYP3A4 (EtOH 50 mM alone), 79.5554. The “inhibition of CYP3A4” value on human recombinant CYP3A4 (ethanol only at 20 mM) was ~ 10%.
Regarding `CC(C)(C)NC(=O)[C@@H]1C[C@@H]2CCCC[C@@H]2CN1C[C@@H](O)[C@H](Cc1ccccc1)NC(=O)[C@H](CC(N)=O)NC(=O)c1ccc2ccccc2n1` [saquinavir], the IC50 in the series on CYP3A4 is […].
